Literature values as cited in patent publication US12686875B2, “Small molecules for increasing precise genome editing efficiency” (Max-Planck-Gesellschaft zur Förderung der Wissenschaften …, priority 2018, dated 2026).

Key:
HEK293A cells = settings: cited from earlier work
hiPSCs = settings: cited from earlier work
mouse ESCs = settings: dsODN donors, from 17.7% without L755507 (Yu et al. 2015); cited from earlier work
[1] = system: precise genome editing (PGE); settings: SCR7 and L755507 added together with RS-1; cited from earlier work
rabbit embryos = settings: dsODN donors, from 4.4% without RS-1; cited from earlier work
U2OS cells = settings: dsODN donors, from 1.9% without RS-1; cited from earlier work
[2] = system: porcine fetal fibroblasts; settings: ssODN donors (Wang et al. 2016); cited from earlier work

Structure (SMILES)	effect on PGE (HEK293A cells)	stimulation of PGE (hiPSCs; hiPSCs (Zhang et al. 2017))	PGE (hiPSCs; hiPSCs, ssODN, from 0.35% without L755507 (Yu et al. 2015))	PGE (mouse ESCs)	effect on PGE when added together with RS-1, compared to RS-1 alone [1]	PGE (HEK293A cells; dsODN donors, from 3.5% without RS-1)	PGE (rabbit embryos)	increase of PGE (hiPSCs; hiPSCs, dsODN donors (Zhang et al., 2017))	PGE (U2OS cells)	effect on PGE efficiency [2]
CCCCCCNC(=O)Nc1ccc(S(=O)(=O)Nc2ccc(CCNC[C@H](O)COc3ccc(O)cc3)cc2)cc1 [L755507]	did not find significant stimulation	did not find significant stimulation	3.13%	33.3%	no additive effect	–	–	–	–	–
O=C(Nc1ccc(Br)cc1)c1ccc(Br)c(S(=O)(=O)NCc2ccccc2)c1 [RS-1]	–	–	–	–	–	21%	26.1%	not	2.4%	No effect
